9 compounds from PubChem BioAssay (NCI) can be followed below.

Test systems include NCI-H522 lung; SK-MEL-2 melanoma; HOP-92 NSCLC; HCC-2998 colon; SN12C renal; HCT-116 colon; LOX IMVI melanoma; RXF 393 renal; MALME-3M melanoma; UACC-257 melanoma.
What all share (assay): NCI-60 cell line screen, 48 h

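Growth conditions: 96-well plates. Treatment: test compound, 48 hours, 5 concentrations. Analysis: linear interpolation between bracketing concentrations; unreached endpoints set to highest concentration. GI50 marks 50% less growth. At the TGI there is no net growth.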

Turning to `COc1cc(C(=O)O)c([N+](=O)[O-])c(OC)c1OC`, the TGI in the assay with NCI-H522 lung, in the assay with SK-MEL-2 melanoma, with HOP-92 NSCLC, in the assay on HCC-2998 colon, with SN12C renal and in the assay on HCT-116 colon was greater than 100 µM each time. Further, the TGI in the assay on LOX IMVI melanoma, with RXF 393 renal, with MALME-3M melanoma and in the assay on UACC-257 melanoma was greater than 100 µM throughout.
In the case of `O=C(c1cccs1)c1c(C(F)(F)F)n([O-])c2ccc(C(F)(F)F)cc2[n+]1=O`, the GI50 in the assay on NCI-H522 lung is 0.204 µM; with SK-MEL-2 melanoma, 0.785 µM; in the assay on HOP-92 NSCLC it was 0.152 µM; in the assay with HCC-2998 colon, 0.647 µM; in the assay on SN12C renal it was 0.195 µM; in the assay on HCT-116 colon, 0.17 µM. The GI50 is 0.0571 µM in the assay with LOX IMVI melanoma, 0.195 µM in the assay with RXF 393 renal, 0.552 µM in the assay on MALME-3M melanoma and 1.59 µM in the assay on UACC-257 melanoma. Moreover, the TGI turned out to be 0.455 µM with NCI-H522 lung; 1.85 µM in the assay on SK-MEL-2 melanoma; 0.321 µM in the assay on HOP-92 NSCLC; 1.28 µM with HCC-2998 colon; 0.468 µM in the assay on SN12C renal; 0.314 µM in the assay with HCT-116 colon. Also, the TGI was found to be 0.127 µM in the assay with LOX IMVI melanoma, 0.387 µM in the assay with RXF 393 renal, 1.21 µM with MALME-3M melanoma and 3.15 µM in the assay with UACC-257 melanoma.
Consider `Cc1c(NC(=O)C(=O)N=NC(=O)c2ccncc2)c(O)c2ccccc2c1O`, for which the TGI in the assay on NCI-H522 lung is 26.2 µM; in the assay with SK-MEL-2 melanoma, 11 µM; in the assay on HOP-92 NSCLC, 33.5 µM; with HCC-2998 colon, 30.7 µM; with SN12C renal it was 24.3 µM; in the assay on HCT-116 colon, 30.1 µM. The TGI in the assay with LOX IMVI melanoma was determined as 19.1 µM; with RXF 393 renal it was 32.6 µM; in the assay on MALME-3M melanoma it was 16.4 µM; in the assay with UACC-257 melanoma, 24.2 µM.
Turning to `COc1cc(O)c(C(=O)/C=C/c2ccccc2)c(OC)c1`, the TGI was found to be 12.1 µM in the assay with NCI-H522 lung; 21.1 µM with SK-MEL-2 melanoma; 14.4 µM in the assay on HOP-92 NSCLC; 14.1 µM in the assay with HCC-2998 colon; 11.6 µM in the assay with SN12C renal; 20.1 µM in the assay with HCT-116 colon. The TGI in the assay on LOX IMVI melanoma was 6.36 µM; in the assay with RXF 393 renal it was 32.8 µM; with MALME-3M melanoma, 18.2 µM; in the assay with UACC-257 melanoma, 23.6 µM.
Take `COC(=O)c1cnc(=O)n(C2CC(O)C(CO)O2)c1` (centres undefined): the GI50 with NCI-H522 lung, in the assay with SK-MEL-2 melanoma, in the assay with HCC-2998 colon, in the assay on SN12C renal, with HCT-116 colon and with LOX IMVI melanoma was greater than 100 µM each time. Also, the GI50 with RXF 393 renal, with MALME-3M melanoma and in the assay with UACC-257 melanoma was greater than 100 µM each time. The TGI in the assay on NCI-H522 lung, with SK-MEL-2 melanoma, in the assay with HOP-92 NSCLC, in the assay on HCC-2998 colon, in the assay with SN12C renal and in the assay on HCT-116 colon was greater than 100 µM throughout. In addition, the TGI with LOX IMVI melanoma, in the assay on RXF 393 renal, in the assay with MALME-3M melanoma and with UACC-257 melanoma was greater than 100 µM in each case.
Regarding `O=[N+]([O-])c1ccc(Sc2ncccn2)c([N+](=O)[O-])c1`, the GI50 is 1.64 µM in the assay on NCI-H522 lung; 7.15 µM with SK-MEL-2 melanoma; 1.15 µM in the assay on HOP-92 NSCLC; 13 µM with HCC-2998 colon; 3.46 µM in the assay on SN12C renal; 3.43 µM in the assay with HCT-116 colon. The GI50 was 4.3 µM with LOX IMVI melanoma, 0.0489 µM in the assay with RXF 393 renal, 1.75 µM in the assay with MALME-3M melanoma and 5.33 µM in the assay on UACC-257 melanoma. Also, the TGI came to 3.11 µM in the assay on NCI-H522 lung; 21.5 µM with SK-MEL-2 melanoma; 3.94 µM with HOP-92 NSCLC; 26.5 µM with HCC-2998 colon; 13.9 µM in the assay with SN12C renal; 11.8 µM with HCT-116 colon. Also, the TGI with LOX IMVI melanoma came to 15 µM; in the assay on RXF 393 renal, 3.23 µM; in the assay with MALME-3M melanoma, 4.72 µM; in the assay with UACC-257 melanoma, 19.1 µM.
Turning to `Cn1cc(-c2ccc(=O)n(Cc3cccc(-c4ncc(OCCN5CCOCC5)cn4)c3)n2)cn1`, the GI50 with NCI-H522 lung is 74.8 µM; in the assay with SK-MEL-2 melanoma, greater than 88.3 µM; in the assay with HOP-92 NSCLC, 34.9 µM; in the assay on HCC-2998 colon it was greater than 100 µM; in the assay with SN12C renal, greater than 69.4 µM; with HCT-116 colon it was 56.5 µM. Besides, the GI50 with LOX IMVI melanoma was greater than 100 µM; in the assay with RXF 393 renal, greater than 75.4 µM; with MALME-3M melanoma it was greater than 54.9 µM; in the assay with UACC-257 melanoma, 48.7 µM. The TGI in the assay on NCI-H522 lung, in the assay on SK-MEL-2 melanoma, with HOP-92 NSCLC, with HCC-2998 colon, in the assay with SN12C renal and in the assay on HCT-116 colon was greater than 100 µM in each case. The TGI in the assay with LOX IMVI melanoma, with RXF 393 renal, in the assay with MALME-3M melanoma and in the assay with UACC-257 melanoma was greater than 100 µM throughout.
Regarding `COc1cc[nH]c1/C=C1\C(=O)Nc2ccc(F)c(C#C[C@@H](O)[C@@H](N)[C@@H](C)O)c21`, the GI50 in the assay on NCI-H522 lung is 0.575 µM; in the assay on SK-MEL-2 melanoma, 0.39 µM; in the assay on HOP-92 NSCLC, 0.517 µM; in the assay with HCC-2998 colon, 0.727 µM; with SN12C renal, 0.51 µM; in the assay on HCT-116 colon, 0.323 µM. The GI50 was 0.516 µM in the assay with LOX IMVI melanoma, 0.279 µM in the assay with RXF 393 renal, 0.504 µM with MALME-3M melanoma and 0.628 µM in the assay with UACC-257 melanoma. The TGI with NCI-H522 lung turned out to be 1.77 µM; in the assay on SK-MEL-2 melanoma, 0.923 µM; with HOP-92 NSCLC, 1.96 µM; in the assay on HCC-2998 colon, 2.64 µM; in the assay on SN12C renal, 8.38 µM; in the assay on HCT-116 colon, 2.89 µM. Besides, the TGI in the assay with LOX IMVI melanoma was determined as 2.5 µM; in the assay on RXF 393 renal, 0.955 µM; in the assay with MALME-3M melanoma, 1.7 µM; in the assay on UACC-257 melanoma, 2.17 µM.
In the case of `C/C(=N\N(C)C)c1sc(-n2nc(-c3ccccc3)cc2-c2ccccc2)nc1C`, the TGI in the assay with NCI-H522 lung, in the assay on SK-MEL-2 melanoma, with HOP-92 NSCLC, with HCC-2998 colon, in the assay on SN12C renal and in the assay with HCT-116 colon was greater than 100 µM in each case. The TGI with LOX IMVI melanoma was 35.3 µM; with RXF 393 renal it was greater than 100 µM; in the assay on MALME-3M melanoma it was greater than 100 µM; with UACC-257 melanoma it was greater than 100 µM.
